Results as given in PubChem BioAssay AID248 (DTP/NCI, 2004).
Values joined by “and” are separate entries in the source; they are usually repeats but may differ in a detail not shown here. Identical values can stand only once. Inconclusive results and toxic doses are left out. No stated cut-off is given here; in the data, active means T/C of 150% or more; inactive means T/C below 125%.

Tested on: L1210 leukemia ip in BDF1 mice, survival T/C
Assay: NCI In Vivo Anticancer Drug Screen. Data for tumor model L1210 Leukemia (intraperitoneal) in B6D2F1 (BDF1) mice
Details: endpoint: mean survival time, higher = longer survival
Method in brief: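 Ratio derived from survival: compound-dosed mice over vehicle-dosed mice, all bearing a transplantable tumor.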

[1] = dose: 100.0 mg/kg/injection, schedule: Q01DX009 (ip), vehicle: Klucel (hydroxypropylcellulose) (HPC)
[2] = dose: 200.0 mg/kg/injection, schedule: Q01DX009 (ip), vehicle: Klucel (hydroxypropylcellulose) (HPC)
[3] = dose: 100.0 mg/kg/injection, schedule: Q01DX009 (ip), vehicle: saline with Tween-80
[4] = dose: 200.0 mg/kg/injection, schedule: Q01DX009 (ip), vehicle: saline with Tween-80
[5] = dose: 50.0 mg/kg/injection, schedule: Q01DX009 (ip), vehicle: saline
[6] = dose: 100.0 mg/kg/injection, schedule: Q04DX003 (ip), vehicle: saline with Tween-80
[7] = dose: 200.0 mg/kg/injection, schedule: Q04DX003 (ip), vehicle: saline with Tween-80
[8] = dose: 400.0 mg/kg/injection, schedule: Q04DX003 (ip), vehicle: saline with Tween-80
[9] = dose: 100.0 mg/kg/injection, schedule: Q01DX001 (ip), vehicle: carboxymethylcellulose (CMC)
[10] = dose: 200.0 mg/kg/injection, schedule: Q01DX001 (ip), vehicle: carboxymethylcellulose (CMC)
[11] = dose: 400.0 mg/kg/injection, schedule: Q01DX001 (ip), vehicle: carboxymethylcellulose (CMC)
[12] = dose: 100.0 mg/kg/injection, schedule: Q04DX003 (ip), vehicle: Klucel (hydroxypropylcellulose) (HPC)
[13] = dose: 200.0 mg/kg/injection, schedule: Q04DX003 (ip), vehicle: Klucel (hydroxypropylcellulose) (HPC)
[14] = dose: 400.0 mg/kg/injection, schedule: Q04DX003 (ip), vehicle: Klucel (hydroxypropylcellulose) (HPC)
[15] = dose: 100.0 mg/kg/injection, schedule: Q04DX003 (ip), vehicle: saline
[16] = dose: 200.0 mg/kg/injection, schedule: Q04DX003 (ip), vehicle: saline
[17] = dose: 400.0 mg/kg/injection, schedule: Q04DX003 (ip), vehicle: saline
[18] = dose: 25.0 mg/kg/injection, schedule: Q01DX009 (ip), vehicle: Klucel (hydroxypropylcellulose) (HPC)
[19] = dose: 50.0 mg/kg/injection, schedule: Q01DX009 (ip), vehicle: Klucel (hydroxypropylcellulose) (HPC)
[20] = dose: 400.0 mg/kg/injection, schedule: Q01DX009 (ip), vehicle: saline with Tween-80

Measured: T/C

CCOc1ccn(CC(=O)N2CCOCC2)c(=O)n1
inactive: dose: 100.0 mg/kg/injection, schedule: Q01DX009 (ip), vehicle: water 93 % of control | dose: 100.0 mg/kg/injection, schedule: Q04DX003 (ip), vehicle: water 105 % of control | dose: 200.0 mg/kg/injection, schedule: Q01DX009 (ip), vehicle: water 95 % of control | dose: 200.0 mg/kg/injection, schedule: Q04DX003 (ip), vehicle: water 100 % of control | dose: 400.0 mg/kg/injection, schedule: Q01DX009 (ip), vehicle: water 98 % of control | dose: 400.0 mg/kg/injection, schedule: Q04DX003 (ip), vehicle: water 95 % of control

CCCCCCCCCCCCCCCCCC(=O)Nc1ccc(OC(=O)NC)cc1
inactive: [1] 93 % of control | [2] 88 % of control

CCC/C(=N\NC(=O)c1ccccc1OC)c1ccccc1
inactive: dose: 50.0 mg/kg/injection, schedule: Q01DX009 (ip), vehicle: saline with Tween-80 105 % of control | [3] 97 % of control | [4] 105 % of control

C/C=C/C1CCCCC1
inactive: [5] 97 % of control | dose: 100.0 mg/kg/injection, schedule: Q01DX009 (ip), vehicle: saline 97 % of control | dose: 200.0 mg/kg/injection, schedule: Q01DX009 (ip), vehicle: saline 93 % of control

COc1cc(/C=N\N=C\c2ccc(O)c(OC)c2)ccc1O
inactive: [6] 100 % of control | [7] 94 % of control | [8] 93 % of control

O=C1c2cc([N+](=O)[O-])ccc2-c2cc(Br)c(N=C(NO)C(F)(F)F)cc21
inactive: [9] 103 % of control | [10] 98 % of control | [11] 95 % of control

CCCOc1ccc(C=Nc2ccc(C)cc2)cc1
inactive: [1] 98 % of control | [12] 109 % of control | [2] 116 % of control | [13] 101 % of control | [14] 117 % of control

C[Si](C)(C)n1ccnc1
inactive: [15] 100 % of control | [16] 105 % of control | [17] 94 % of control

O=C(COc1cc(Cl)c(Cl)cc1Cl)Nc1cccc(C(F)(F)F)c1
inactive: dose: 100.0 mg/kg/injection, schedule: Q04DX002 (ip), vehicle: saline 100 % of control | dose: 200.0 mg/kg/injection, schedule: Q04DX002 (ip), vehicle: saline 92 % of control | dose: 400.0 mg/kg/injection, schedule: Q04DX002 (ip), vehicle: saline 111 % of control

COC(CCCl)c1ccccc1 (centres undefined)
inactive: [3] 101 % of control | [6] 100 % of control | [4] 100 % of control | [7] 96 % of control | [8] 91 % of control

N#Cc1cnn(C(N)=S)c1N
inactive: dose: 25.0 mg/kg/injection, schedule: Q01DX009 (ip), vehicle: saline 88 % of control | dose: 25.0 mg/kg/injection, schedule: Q04DX003 (ip), vehicle: saline 94 % of control | [5] 97 % of control | dose: 50.0 mg/kg/injection, schedule: Q04DX003 (ip), vehicle: saline 110 % of control | [15] 98 % of control

Cc1ccc(C2(O)CCN(CCCC(=O)c3ccc(F)cc3)CC2)cc1
inactive: dose: 3.12 mg/kg/injection, schedule: Q01DX009 (ip), vehicle: Klucel (hydroxypropylcellulose) (HPC) 101 % of control | dose: 6.25 mg/kg/injection, schedule: Q01DX009 (ip), vehicle: Klucel (hydroxypropylcellulose) (HPC) 104 % of control | dose: 12.5 mg/kg/injection, schedule: Q01DX009 (ip), vehicle: Klucel (hydroxypropylcellulose) (HPC) 101 % of control | [18] 113 % of control | [19] 104 % of control

CC(=O)C1(C)Nc2cccc3cccc(c23)N1
inactive: [3] 97 % of control | [4] 106 % of control | [20] 96 % of control

OCc1cc(-c2ccc(Cl)cc2)nc2c(C(F)(F)F)cccc12
inactive: [1] 108 % of control | [12] 102 % of control | [2] 111 % of control | [13] 104 % of control | dose: 400.0 mg/kg/injection, schedule: Q01DX009 (ip), vehicle: Klucel (hydroxypropylcellulose) (HPC) 109 % of control | [14] 102 % of control

COc1cc(C=Nc2ccccc2C(=O)N/N=C/c2cc(OC)c(OC)c(OC)c2)cc(OC)c1OC
inactive: [12] 97 % of control | [13] 100 % of control | [14] 91 % of control

O=C(/C(=C/c1ccc(Cl)cc1)c1ccccc1)c1ccc(O)cc1
inactive: dose: 200.0 mg/kg/injection, schedule: Q01DX001 (ip), vehicle: saline 92 % of control | dose: 400.0 mg/kg/injection, schedule: Q01DX001 (ip), vehicle: saline 86 % of control

O=C(N/N=C/c1ccco1)C1CCCO1 (centres undefined)
inactive: [18] 101 % of control | [19] 102 % of control | [1] 101 % of control and 114 % of control | [2] 106 % of control

c1ccc2c(c1)Sc1cnccc1N2CC1CO1 (centres undefined)
inactive: [15] 96 % of control | [16] 92 % of control | [17] 96 % of control

CN(C)/N=C/c1ccc(-c2ccccc2)cc1
inactive: [3] 95 % of control | [4] 111 % of control | [20] 102 % of control

Oc1c(Cl)cc(Cl)cc1CNCc1ccccc1
inactive: dose: 100.0 mg/kg/injection, schedule: Q01DX001 (ip), vehicle: other 93 % of control | dose: 100.0 mg/kg/injection, schedule: Q04DX003 (ip), vehicle: other 110 % of control | dose: 200.0 mg/kg/injection, schedule: Q01DX001 (ip), vehicle: other 94 % of control | dose: 200.0 mg/kg/injection, schedule: Q04DX003 (ip), vehicle: other 102 % of control | dose: 400.0 mg/kg/injection, schedule: Q01DX001 (ip), vehicle: other 90 % of control | dose: 400.0 mg/kg/injection, schedule: Q04DX003 (ip), vehicle: other 110 % of control

O=C(Nc1ccccc1Cl)Oc1c(Cl)cc(Cl)c2ccccc12
inactive: [18] 100 % of control | [19] 105 % of control | dose: 100.0 mg/kg/injection, schedule: Q04DX002 (ip), vehicle: Klucel (hydroxypropylcellulose) (HPC) 91 % of control

CC(=O)OC1CCC2(C)C(CCC3C2CCC2(C)C(C(C)=O)CCC32)C1 (centres undefined)
inactive: dose: 100.0 mg/kg/injection, schedule: Q01DX009 (sc), vehicle: steriod suspending solution 95 % of control | dose: 200.0 mg/kg/injection, schedule: Q01DX009 (sc), vehicle: steriod suspending solution 95 % of control | dose: 400.0 mg/kg/injection, schedule: Q01DX009 (sc), vehicle: steriod suspending solution 90 % of control

CCOC(=O)C(=O)c1cn(C)c2ccccc12
inactive: dose: 50.0 mg/kg/injection, schedule: Q01DX001 (ip), vehicle: carboxymethylcellulose (CMC) 109 % of control | [9] 106 % of control | [10] 106 % of control | [11] 101 % of control

C=CS(=O)CCCCCCC (centres undefined)
inactive: dose: 12.5 mg/kg/injection, schedule: Q04DX002 (ip), vehicle: saline with Tween-80 106 % of control | dose: 25.0 mg/kg/injection, schedule: Q04DX002 (ip), vehicle: saline with Tween-80 103 % of control | dose: 50.0 mg/kg/injection, schedule: Q04DX002 (ip), vehicle: saline with Tween-80 109 % of control
